Assay results as given in patent US10376480B2, “Biguanide derivative, a preparation method thereof, and a pharmaceutical composition containing the biguanide derivative as an active ingredient” (Immunomet Therapeutics Inc., priority 2010, dated 2019).

System: HCT116 cells
Assay: Inhibition of cancer cell proliferation (MTT, GIC50)
Assay type: cell-based
Conditions: Homo sapiens, HCT-116, 48 hours incubation
Protocol: HCT116 cells derived from human colorectal cancer were used, and an effect of a biguanide derivative on the inhibition of cancer cell proliferation was confirmed by measuring a concentration value (cell growth inhibition concentration, GIC50) at which 50% of the cell growth was inhibited using a 3-(4,5-dimethylthiazol-2-yl)-2,5-diphenytetrazolium bromide (MTT) reagent.
First, HCT116 cells were put on a 96-well plate and cultured in a DMEM medium containing 10% bovine serum for 24 hours to each have cell count of approximately 5000. Subsequently, to obtain the GIC50 value of each compound, 100 μM (or 200 μM), 25 μM, 6.25 μM, 1.56 μM or 0.39 μM of the compound was treated to each culture medium and then incubated for 48 hours. To confirm living cells after treatment with the compound, MTT was added to each culture medium and further incubated for 3 hours. Generated formazane crystal was dissolved using dimethyl sulfoxide (DMSO) and absorbance of the solution was measured at 560 nm. After the 48-hour incubation, a ratio of a cell count cultured on a well plate not treated with the compound to a cell count on a well plate treated with compounds synthesized in the examples was indicated as cell viability (%) according to each administered concentration. A cell viability curve was plotted using the cell viability (%), and the calculated concentration value (GIC50) of the compound, at which 50% of the growth was inhibited was, to confirm an effect on the inhibition of cancer cell proliferation.

Compound	IC50
CN(C)C(=N)NC(=N)NCc1cccnc1.Cl [Example 27, N1,N1-dimethyl-N5-(pyridine-3-yl)methyl Biguanide Hydrochloride]	> 200 µM
CN(C)C(=N)NC(=N)NCc1ccccc1.Cl [Example 28, N1,N1-dimethyl-N5-benzyl Biguanide Hydrochloride]	> 200 µM
CN(C)C(=N)NC(=N)NCCc1ccccc1.Cl [Example 29, N1,N1-dimethyl-N5-(phenethyl) Biguanide Hydrochloride]	> 200 µM
CCN(CC)C(=N)NC(=N)Nc1cccc(Cl)c1.Cl [Example 30, N1,N1-diethyl-N5-(3-chloro)phenyl Biguanide Hydrochloride]	28.3 µM
CCCN(CC)C(=N)NC(=N)Nc1ccc(Cl)cc1.Cl [Example 32, N1,N1-(ethyl)(propyl)-N5-(4-chloro)phenyl Biguanide Hydrochloride]	> 200 µM
CCCN(CCC)C(=N)NC(=N)Nc1cccc2cnccc12.Cl [Example 33, N1,N1-dipropyl-N5-(isoquinoline-5-yl) Biguanide Hydrochloride]	> 100 µM
CCN(CC)C(=N)NC(=N)N(CC)CC.Cl [Example 35, N1,N1,N5,N5-tetraethyl Biguanide Hydrochloride]	> 200 µM

The next lines start with the values.

IC50	Compound
> 200 µM	CCN(CC)C(=N)NC(=N)N(C)C1CCCCC1.Cl [Example 36, N1,N1-diethyl-N5,N5-(cyclohexyl)(methyl) Biguanide Hydrochloride]
> 100 µM	CCCN(CCC)C(=N)NC(=N)N(CC)CC.Cl [Example 37, N1,N1-dipropyl-N5,N5-diethyl Biguanide Hydrochloride]
36 µM	CCCN(CCC)C(=N)NC(=N)N(C)CCc1ccccc1.Cl [Example 38, N1,N1-dipropyl-N5,N5-(methyl)(phenethyl) Biguanide Hydrochloride]
> 100 µM	CCCN(CCC)C(=N)NC(=N)N(c1ccccc1)c1ccc(O)cc1.Cl [Example 39, N1,N1-dipropyl-N5,N5-(4-hydroxylphenyl)(phenyl) Biguanide Hydrochloride]
> 100 µM	CN(Cc1ccccc1)C(=N)NC(=N)N(C)Cc1ccccc1.Cl [Example 40, N1,N1,N5,N5-bis((benzyl)(methyl)) Biguanide Hydrochloride]

System: 5′-AMP-activated protein kinase (AMPK)
Assay: AMPK activation (AMPKα Thr172 phosphorylation immunoassay) in MCF7 cells
Assay type: cell-based, human
Conditions: 50 μM compound, MCF7 cells, 24 hours
Protocol: MCF7 cells derived from human breast cancer cells were used, and an effect of a biguanide derivative on 5′-AMP-activated protein kinase (AMPK) activation was confirmed using an AMPKα immunoassay kit (Invitrogen, catalog No. KHO0651).
The MCF7 cells were put on a 6-well plate and incubated in a DMEM medium containing 10% fetal bovine serum in an incubator to which 5% CO2 was supplied to have a cell count of approximately 5×10^5. 50 μM of derivatives synthesized in the examples were treated to the each culture medium, and the cells were incubated for 24 hours. Subsequently, the cells were lysed by a method presented in the operation manual of the AMPKα immunoassay kit, and 20 μg of cell lysates were yielded through protein assay. A degree of phosphorylation of an AMPKα threonine 172nd residue (Thr172) from the cell lysates were confirmed according to a method presented in the operation manual of the AMPKα immunoassay kit to thereby obtain results.
In addition, an experiment was performed in the same manner as described in Experimental Example 2 using metformin as a control group, and the results of an effect on AMPK activation were compared to the effect on AMPK activation when 1 mM metformin was treated.

Compound	AMPK Activation (phosphorylated AMPKα Thr172)
CN(C)C(=N)NC(=N)NCc1cccnc1.Cl [Example 27, N1,N1-dimethyl-N5-(pyridine-3-yl)methyl Biguanide Hydrochloride]	4.6
CN(C)C(=N)NC(=N)NCc1ccccc1.Cl [Example 28, N1,N1-dimethyl-N5-benzyl Biguanide Hydrochloride]	5.9
CN(C)C(=N)NC(=N)NCCc1ccccc1.Cl [Example 29, N1,N1-dimethyl-N5-(phenethyl) Biguanide Hydrochloride]	14.7
CCN(CC)C(=N)NC(=N)Nc1cccc(Cl)c1.Cl [Example 30, N1,N1-diethyl-N5-(3-chloro)phenyl Biguanide Hydrochloride]	19.3
CCCN(CC)C(=N)NC(=N)Nc1ccc(Cl)cc1.Cl [Example 32, N1,N1-(ethyl)(propyl)-N5-(4-chloro)phenyl Biguanide Hydrochloride]	5.2
CCCN(CCC)C(=N)NC(=N)Nc1cccc2cnccc12.Cl [Example 33, N1,N1-dipropyl-N5-(isoquinoline-5-yl) Biguanide Hydrochloride]	11.3
CCN(CC)C(=N)NC(=N)N(CC)CC.Cl [Example 35, N1,N1,N5,N5-tetraethyl Biguanide Hydrochloride]	3.8
CCN(CC)C(=N)NC(=N)N(C)C1CCCCC1.Cl [Example 36, N1,N1-diethyl-N5,N5-(cyclohexyl)(methyl) Biguanide Hydrochloride]	4.5
CCCN(CCC)C(=N)NC(=N)N(CC)CC.Cl [Example 37, N1,N1-dipropyl-N5,N5-diethyl Biguanide Hydrochloride]	33.3
CCCN(CCC)C(=N)NC(=N)N(C)CCc1ccccc1.Cl [Example 38, N1,N1-dipropyl-N5,N5-(methyl)(phenethyl) Biguanide Hydrochloride]	35.8
CCCN(CCC)C(=N)NC(=N)N(c1ccccc1)c1ccc(O)cc1.Cl [Example 39, N1,N1-dipropyl-N5,N5-(4-hydroxylphenyl)(phenyl) Biguanide Hydrochloride]	28.8
CN(Cc1ccccc1)C(=N)NC(=N)N(C)Cc1ccccc1.Cl [Example 40, N1,N1,N5,N5-bis((benzyl)(methyl)) Biguanide Hydrochloride]	11.3

Same assay, conditions: Homo sapiens, 24 h; 50 μM vs. 0 (cells without compound), MCF7 cells

Compound	fold induction at 50 µM
CN(C)C(=N)NC(=N)NCc1cccnc1.Cl [Example 27, N1,N1-dimethyl-N5-(pyridine-3-yl)methyl Biguanide Hydrochloride]	0.9
CN(C)C(=N)NC(=N)NCc1ccccc1.Cl [Example 28, N1,N1-dimethyl-N5-benzyl Biguanide Hydrochloride]	1.2
CN(C)C(=N)NC(=N)NCCc1ccccc1.Cl [Example 29, N1,N1-dimethyl-N5-(phenethyl) Biguanide Hydrochloride]	2.8
CCN(CC)C(=N)NC(=N)Nc1cccc(Cl)c1.Cl [Example 30, N1,N1-diethyl-N5-(3-chloro)phenyl Biguanide Hydrochloride]	7.7
CCCN(CC)C(=N)NC(=N)Nc1ccc(Cl)cc1.Cl [Example 32, N1,N1-(ethyl)(propyl)-N5-(4-chloro)phenyl Biguanide Hydrochloride]	1
CCCN(CCC)C(=N)NC(=N)Nc1cccc2cnccc12.Cl [Example 33, N1,N1-dipropyl-N5-(isoquinoline-5-yl) Biguanide Hydrochloride]	1.7
CCN(CC)C(=N)NC(=N)N(CC)CC.Cl [Example 35, N1,N1,N5,N5-tetraethyl Biguanide Hydrochloride]	0.7
CCN(CC)C(=N)NC(=N)N(C)C1CCCCC1.Cl [Example 36, N1,N1-diethyl-N5,N5-(cyclohexyl)(methyl) Biguanide Hydrochloride]	0.8
CCCN(CCC)C(=N)NC(=N)N(CC)CC.Cl [Example 37, N1,N1-dipropyl-N5,N5-diethyl Biguanide Hydrochloride]	6.3
CCCN(CCC)C(=N)NC(=N)N(C)CCc1ccccc1.Cl [Example 38, N1,N1-dipropyl-N5,N5-(methyl)(phenethyl) Biguanide Hydrochloride]	6.8
CCCN(CCC)C(=N)NC(=N)N(c1ccccc1)c1ccc(O)cc1.Cl [Example 39, N1,N1-dipropyl-N5,N5-(4-hydroxylphenyl)(phenyl) Biguanide Hydrochloride]	4.2
CN(Cc1ccccc1)C(=N)NC(=N)N(C)Cc1ccccc1.Cl [Example 40, N1,N1,N5,N5-bis((benzyl)(methyl)) Biguanide Hydrochloride]	1.7

System: not given
Assay: not given
Conditions: not given

Compound	melting point
CN(C)C(=N)NC(=N)NCc1cccnc1.Cl [Example 27, N1,N1-dimethyl-N5-(pyridine-3-yl)methyl Biguanide Hydrochloride]	112 to 114 °C
CN(C)C(=N)NC(=N)NCc1ccccc1.Cl [Example 28, N1,N1-dimethyl-N5-benzyl Biguanide Hydrochloride]	151 to 152 °C
CN(C)C(=N)NC(=N)NCCc1ccccc1.Cl [Example 29, N1,N1-dimethyl-N5-(phenethyl) Biguanide Hydrochloride]	155 to 157 °C
CCN(CC)C(=N)NC(=N)Nc1cccc(Cl)c1.Cl [Example 30, N1,N1-diethyl-N5-(3-chloro)phenyl Biguanide Hydrochloride]	219 to 220 °C
CCCN(CC)C(=N)NC(=N)Nc1ccc(Cl)cc1.Cl [Example 32, N1,N1-(ethyl)(propyl)-N5-(4-chloro)phenyl Biguanide Hydrochloride]	110 to 112 °C
CCCN(CCC)C(=N)NC(=N)Nc1cccc2cnccc12.Cl [Example 33, N1,N1-dipropyl-N5-(isoquinoline-5-yl) Biguanide Hydrochloride]	191 to 192 °C
CCN(CC)C(=N)NC(=N)N(CC)CC.Cl [Example 35, N1,N1,N5,N5-tetraethyl Biguanide Hydrochloride]	140 to 141 °C

The remaining lines, values ahead:

melting point	Compound
115 to 117 °C	CCN(CC)C(=N)NC(=N)N(C)C1CCCCC1.Cl [Example 36, N1,N1-diethyl-N5,N5-(cyclohexyl)(methyl) Biguanide Hydrochloride]
151 to 152 °C	CCCN(CCC)C(=N)NC(=N)N(CC)CC.Cl [Example 37, N1,N1-dipropyl-N5,N5-diethyl Biguanide Hydrochloride]
110 to 111 °C	CCCN(CCC)C(=N)NC(=N)N(C)CCc1ccccc1.Cl [Example 38, N1,N1-dipropyl-N5,N5-(methyl)(phenethyl) Biguanide Hydrochloride]
189 to 190 °C	CCCN(CCC)C(=N)NC(=N)N(c1ccccc1)c1ccc(O)cc1.Cl [Example 39, N1,N1-dipropyl-N5,N5-(4-hydroxylphenyl)(phenyl) Biguanide Hydrochloride]
141 to 142 °C	CN(Cc1ccccc1)C(=N)NC(=N)N(C)Cc1ccccc1.Cl [Example 40, N1,N1,N5,N5-bis((benzyl)(methyl)) Biguanide Hydrochloride]
